From ChEMBL document CHEMBL1671617, “Correlation of antimicrobial resistance with beta-lactamases, the OmpA-like porin, and efflux pumps in clinical isolates of Acinetobacter baumannii endemic to New York City” (2008)
Values after ≈ are worked out from the molar mass of the structure shown.

Experiments:
Type in all cases: functional
[1] = tested on: Acinetobacter baumannii; experiment: Antimicrobial activity against Acinetobacter baumannii unique clonal group isolate 39 expressing ampC, ompA, adeM by Etest method
[2] = tested on: Acinetobacter baumannii; experiment: Antimicrobial activity against ISAba1 linked with the blaOXA-51-type beta-lactamase harboring Acinetobacter baumannii beta clonal group isolate 10 expressing ompA, adeB, adeM, aacA4, blaSHV-5 by Etest method
[3] = tested on: Acinetobacter baumannii; experiment: Antimicrobial activity against Acinetobacter baumannii alpha clonal group isolate 3 expressing ampC, ompA, adeB, adeM, aacC1, aadA1 by Etest method
[4] = tested on: Acinetobacter baumannii; experiment: Antimicrobial activity against Acinetobacter baumannii eta clonal group isolate 35 expressing ampC, ompA, adeB, adeM by Etest method
[5] = tested on: Acinetobacter baumannii; experiment: Antimicrobial activity against ISAba1 linked with the blaOXA-51-type beta-lactamase harboring Acinetobacter baumannii zeta clonal group isolate 26 expressing ampC, ompA, adeB, adeM, aadA1, aacA4, aacC2, blaSHV-5 by Etest method
[6] = tested on: Acinetobacter baumannii; experiment: Antimicrobial activity against ISAba1 linked with the blaOXA-51-type beta-lactamase harboring Acinetobacter baumannii zeta clonal group isolate 23 expressing ampC, ompA, adeB, adeM, aadA1, aacA4, aacC2, aphA6 by Etest method
[7] = tested on: Acinetobacter baumannii; experiment: Antimicrobial activity against ISAba1 linked with the blaOXA-51-type beta-lactamase harboring Acinetobacter baumannii zeta clonal group isolate 22 expressing ampC, ompA, adeB, adeM, aadA1, aacA4, aacC2, blaSHV-5 by Etest method
[8] = tested on: Acinetobacter baumannii; experiment: Antimicrobial activity against Acinetobacter baumannii unique clonal group isolate 38 expressing ampC, ompA, adeB, adeM by Etest method
[9] = tested on: Acinetobacter baumannii; experiment: Antimicrobial activity against ISAba1 linked with the blaOXA-51-type beta-lactamase harboring Acinetobacter baumannii lambda clonal group isolate 28 expressing ampC, ompA, adeM, aadB, aadA1 by Etest method
[10] = tested on: Acinetobacter baumannii; experiment: Antimicrobial activity against Acinetobacter baumannii nu clonal group isolate 31 expressing ampC, ompA, adeB, adeM, aadB, aadA2 by Etest method
[11] = tested on: Acinetobacter baumannii; experiment: Antimicrobial activity against ISAba1 linked with the blaOXA-51-type beta-lactamase harboring Acinetobacter baumannii beta clonal group isolate 15 expressing ompA, adeB, adeM, aacA4, blaSHV-5 by Etest method
[12] = tested on: Acinetobacter baumannii; experiment: Antimicrobial activity against ISAba1 linked with the blaOXA-51-type beta-lactamase harboring Acinetobacter baumannii zeta clonal group isolate 19 expressing ampC, ompA, adeB, adeM, aacC2 by Etest method
[13] = tested on: Acinetobacter baumannii; experiment: Antimicrobial activity against ISAba1 linked with the blaOXA-51-type beta-lactamase harboring Acinetobacter baumannii beta clonal group isolate 14 expressing ompA, adeB, adeM, aacA4, blaSHV-5 by Etest method
[14] = tested on: Acinetobacter baumannii; experiment: Antimicrobial activity against Acinetobacter baumannii nu clonal group isolate 33 expressing ampC, ompA, adeB, adeM by Etest method
[15] = tested on: Acinetobacter baumannii; experiment: Antimicrobial activity against ISAba1 linked with the blaOXA-51-type beta-lactamase harboring Acinetobacter baumannii alpha clonal group isolate 6 expressing ampC, ompA, adeB, adeM, aacC1, aadA1 by Etest method
[16] = tested on: Acinetobacter baumannii; experiment: Antimicrobial activity against ISAba1 linked with the blaOXA-51-type beta-lactamase harboring Acinetobacter baumannii alpha clonal group isolate 7 expressing ampC, ompA, adeB, adeM, blaSHV-5 by Etest method
[17] = tested on: Acinetobacter baumannii; experiment: Antimicrobial activity against Acinetobacter baumannii unique clonal group isolate 37 expressing ampC, ompA, adeB, adeM by Etest method
[18] = tested on: Acinetobacter baumannii; experiment: Antimicrobial activity against ISAba1 linked with the blaOXA-51-type beta-lactamase harboring Acinetobacter baumannii beta clonal group isolate 9 expressing ampC, ompA, adeB, adeM by Etest method
[19] = tested on: Acinetobacter baumannii; experiment: Antimicrobial activity against ISAba1 linked with the blaOXA-51-type beta-lactamase harboring Acinetobacter baumannii unique clonal group isolate 40 expressing ampC, ompA, adeB, adeM, aadA1, aacA4, aacC2, blaSHV-5 by Etest method
[20] = tested on: Acinetobacter baumannii; experiment: Antimicrobial activity against Acinetobacter baumannii alpha clonal group isolate 4 expressing ampC, ompA, adeB, adeM, aacC1, aadA1 by Etest method
[21] = tested on: Acinetobacter baumannii; experiment: Antimicrobial activity against ISAba1 linked with the blaOXA-51-type beta-lactamase harboring Acinetobacter baumannii lambda clonal group isolate 30 expressing ampC, ompA, adeB, adeM, aadB, aadA1 by Etest method
[22] = tested on: Acinetobacter baumannii; experiment: Antimicrobial activity against ISAba1 linked with the blaOXA-51-type beta-lactamase harboring Acinetobacter baumannii beta clonal group isolate 11 expressing ompA, adeB, adeM, blaSHV-5 by Etest method
[23] = tested on: Acinetobacter baumannii; experiment: Antimicrobial activity against ISAba1 linked with the blaOXA-51-type beta-lactamase harboring Acinetobacter baumannii zeta clonal group isolate 20 expressing ampC, ompA, adeB, adeM, aacC2 by Etest method
[24] = tested on: Acinetobacter baumannii; experiment: Antimicrobial activity against ISAba1 linked with the blaOXA-51-type beta-lactamase harboring Acinetobacter baumannii alpha clonal group isolate 8 expressing ampC, ompA, adeB, adeM, aacC1, aadA1 by Etest method
[25] = tested on: Acinetobacter baumannii; experiment: Antimicrobial activity against ISAba1 linked with the blaOXA-51-type beta-lactamase harboring Acinetobacter baumannii alpha clonal group isolate 1 expressing ampC, ompA, adeB, adeM by Etest method
[26] = tested on: Acinetobacter baumannii; experiment: Antimicrobial activity against ISAba1 linked with the blaOXA-51-type beta-lactamase harboring Acinetobacter baumannii beta clonal group isolate 18 expressing ompA, adeB, adeM, aacA4, blaSHV-5 by Etest method
[27] = tested on: Acinetobacter baumannii; experiment: Antimicrobial activity against Acinetobacter baumannii nu clonal group isolate 32 expressing ampC, ompA, adeB, adeM, aadB, aadA2 by Etest method
[28] = tested on: Acinetobacter baumannii; experiment: Antimicrobial activity against ISAba1 linked with the blaOXA-51-type beta-lactamase harboring Acinetobacter baumannii beta clonal group isolate 16 expressing ompA, adeB, adeM, aacA4, blaSHV-5 by Etest method
[29] = tested on: Acinetobacter baumannii; experiment: Antimicrobial activity against Acinetobacter baumannii alpha clonal group isolate 5 expressing ampC, ompA, adeB, adeM, aacC1, aadA1 by Etest method
[30] = tested on: Acinetobacter baumannii; experiment: Antimicrobial activity against Acinetobacter baumannii eta clonal group isolate 36 expressing ampC, ompA, adeB, adeM by Etest method
[31] = tested on: Acinetobacter baumannii; experiment: Antimicrobial activity against ISAba1 linked with the blaOXA-51-type beta-lactamase harboring Acinetobacter baumannii beta clonal group isolate 13 expressing ompA, adeB, adeM, aacA4, blaSHV-5 by Etest method
[32] = tested on: Acinetobacter baumannii; experiment: Antimicrobial activity against ISAba1 linked with the blaOXA-51-type beta-lactamase harboring Acinetobacter baumannii beta clonal group isolate 17 expressing ompA, adeB, adeM, aacA4, blaSHV-5 by Etest method
[33] = tested on: Acinetobacter baumannii; experiment: Antimicrobial activity against ISAba1 linked with the blaOXA-51-type beta-lactamase harboring Acinetobacter baumannii beta clonal group isolate 12 expressing ompA, adeB, adeM, aacA4, aacC2, blaSHV-5 by Etest method
[34] = tested on: Acinetobacter baumannii; experiment: Antimicrobial activity against ISAba1 linked with the blaOXA-51-type beta-lactamase harboring Acinetobacter baumannii zeta clonal group isolate 24 expressing ampC, ompA, adeB, adeM, aadA1, aacA4, aacC2, blaSHV-5 by Etest method
[35] = tested on: Acinetobacter baumannii; experiment: Antimicrobial activity against ISAba1 linked with the blaOXA-51-type beta-lactamase harboring Acinetobacter baumannii zeta clonal group isolate 21 expressing ampC, ompA, adeB, adeM, aacC2, blaSHV-5 by Etest method
[36] = tested on: Acinetobacter baumannii; experiment: Antimicrobial activity against ISAba1 linked with the blaOXA-51-type beta-lactamase harboring Acinetobacter baumannii lambda clonal group isolate 29 expressing ampC, ompA, adeM, aadB, aadA1 by Etest method
[37] = tested on: Acinetobacter baumannii; experiment: Antimicrobial activity against Acinetobacter baumannii nu clonal group isolate 34 expressing ampC, ompA, adeB, adeM by Etest method
[38] = tested on: Acinetobacter baumannii; experiment: Antimicrobial activity against Acinetobacter baumannii lambda clonal group isolate 27 expressing ampC, ompA, adeB, adeM, aadB, aadA1 by Etest method
[39] = tested on: Acinetobacter baumannii; experiment: Antimicrobial activity against Acinetobacter baumannii alpha clonal group isolate 2 expressing ampC, ompA, adeB, adeM, aacC1, aadA1 by Etest method
[40] = tested on: Acinetobacter baumannii; experiment: Antimicrobial activity against ISAba1 linked with the blaOXA-51-type beta-lactamase harboring Acinetobacter baumannii zeta clonal group isolate 25 expressing ampC, ompA, adeB, adeM, aadA1, aacA4, aacC2, blaSHV-5 by Etest method

SMILES | MIC [1] [µg/mL] | MIC [2] [µg/mL] | MIC [3] [µg/mL] | MIC [4] [µg/mL] | MIC [5] [µg/mL] | MIC [6] [µg/mL] | MIC [7] [µg/mL] | MIC [8] [µg/mL] | MIC [10] [µg/mL] | MIC [11] [µg/mL] | MIC [12] [µg/mL] | MIC [13] [µg/mL] | MIC [14] [µg/mL] | MIC [15] [µg/mL] | MIC [16] [µg/mL] | MIC [17] [µg/mL] | MIC [18] [µg/mL] | MIC [19] [µg/mL] | MIC [20] [µg/mL] | MIC [21] [µg/mL] | further results
CC(C)(O/N=C(\C(=O)N[C@@H]1C(=O)N2C(C(=O)[O-])=C(C[n+]3ccccc3)CS[C@H]12)c1csc(N)n1)C(=O)O [CEFTAZIDIME] | 4 (≈ 7.32 µM) | 48 (≈ 87.8 µM) | > 256 | 12 (≈ 22 µM) | > 256 | 16 (≈ 29.3 µM) | > 256 | 16 (≈ 29.3 µM) | 4 (≈ 7.32 µM) | > 48 | 24 (≈ 43.9 µM) | > 48 | 6 (≈ 11 µM) | > 256 | > 256 | 12 (≈ 22 µM) | 48 (≈ 87.8 µM) | > 256 | > 256 | > 256 | MIC [9]: > 256 µg/mL; MIC [22]: 128 µg/mL (≈ 234 µM); MIC [23]: 24 µg/mL (≈ 43.9 µM); MIC [24]: 96 µg/mL (≈ 176 µM); MIC [25]: > 256 µg/mL; MIC [26]: 96 µg/mL (≈ 176 µM); MIC [27]: 4 µg/mL (≈ 7.32 µM); MIC [28]: > 48 µg/mL; MIC [29]: > 256 µg/mL; MIC [30]: 12 µg/mL (≈ 22 µM); MIC [31]: > 48 µg/mL; MIC [32]: > 48 µg/mL; MIC [33]: > 256 µg/mL; MIC [34]: > 256 µg/mL; MIC [35]: 32 µg/mL (≈ 58.5 µM); MIC [36]: > 256 µg/mL; MIC [37]: 6 µg/mL (≈ 11 µM); MIC [38]: > 256 µg/mL; MIC [39]: > 256 µg/mL; MIC [40]: > 256 µg/mL
C[C@H]1COc2c(N3CCN(C)CC3)c(F)cc3c(=O)c(C(=O)O)cn1c23.C[C@H]1COc2c(N3CCN(C)CC3)c(F)cc3c(=O)c(C(=O)O)cn1c23.O [LEVOFLOXACIN] | 0.09 | > 32 | > 12 | > 6 | 16 | 12 | 16 | 0.13 | > 12 | > 32 | 12 | > 32 | 4 | 6 | 6 | 6 | > 32 | > 32 | > 12 | 16 | MIC [22]: > 32 µg/mL; MIC [23]: 12 µg/mL; MIC [24]: 32 µg/mL; MIC [25]: 16 µg/mL; MIC [26]: > 32 µg/mL; MIC [27]: > 12 µg/mL; MIC [28]: > 32 µg/mL; MIC [29]: > 12 µg/mL; MIC [30]: > 6 µg/mL; MIC [31]: > 32 µg/mL; MIC [32]: > 32 µg/mL; MIC [33]: > 32 µg/mL; MIC [34]: 16 µg/mL; MIC [35]: > 32 µg/mL; MIC [37]: 4 µg/mL; MIC [38]: 3 µg/mL; MIC [39]: > 12 µg/mL; MIC [40]: 16 µg/mL
